In paper PMC5603865, “Synthesis, In-Vitro Activity and Metabolic Properties of Quinocetone and Structurally Similar Compounds” (Iranian Journal of Pharmaceutical Research : IJPR, 2017):
Values after ≈ are worked out from the molar mass of the structure shown. Where two headings read alike, the source gives them in different places.

What was measured:
[1] = test system: HepG2 cells; test: In-vitro cytotoxicity, MTT cell proliferation assay; assay type: cell-based, human; settings: 24 h incubation, concentration reducing viable cells by 50%
Description: (§1) All test compounds were dissolved in dimethyl sulfoxide (DMSO, Sigma, USA) and then diluted in Dulbecco’s modified Eagle’s medium (DMEM, Gibco, USA) at desired concentrations for cell proliferation analyses or diluted in nutrient broth medium for antimicrobial susceptibility testing respectively. The final concentration of DMSO in the DMEM culture medium was under 0.1% (v:v).
(§2) HepG2 and normal human Chang liver cells were obtained from the Institute of Biochemistry and Cell Biology, Shanghai Institutes for Biological Sciences, Chinese Academy of Sciences (Shanghai, China). HepG2 and normal human Chang liver cells were cultured at 37˚Cwith 5% CO2 in DMEM supplemented with 2% L-glutamine, 10% fetal bovine serum (Gibco, USA), 100 U/mL penicillin and 100 […] (Gibco, USA).
(§3) The methodology for evaluating the cytotoxicity inhibitory activity of various test compounds towards cell proliferation has been described previously ([11], [17]). Cell proliferation inhibitory analyses were carried out using the 3-(4,5-dimethylthiazole-2-yl)-2,5-diphenyl tetrazolium bromide (MTT, Sigma, USA) assay. Briefly, cancers HepG2 and normal human Chang liver cells were harvested and resuspended in fresh growth medium. A 100 μL cell suspension (5 × 10^4 cells/mL) was aliquoted into each well of a 96-well culture plate. After 12 h incubation, the medium was replaced with fresh medium containing various concentrations of test compounds. The cells were then incubated for another 24 h. At the end of exposure, 10 μL of MTT solution (5 mg/mL) was added, and the cells were incubated for 4 h at 37 °C. The cells were treated with 100 μL DMSO, and absorbance was recorded at 570 nm using a microplate ELISA reader (ELX800, Bio-Tek, USA). All experiments were performed at least thrice, and data were presented as the mean of sixplicate wells ± standard deviation (SD). Cell inhibition was calculated as follows:
(§4) (OD of control group − OD of experimental group) / (OD of control group − OD of blank group) ×100%. The IC50 value for a compound was calculated using SPSS.

[2] = test system: Clostridium perfringen CVCC52,8604; test: In-vitro antibacterial activity, MIC by broth dilution (anaerobic chamber); assay type: cell-based; settings: 24 h; for MIC: Clostridium
Description: as §1
(§5) The preliminary antibacterial activities were obtained for selected compounds against various bacteria, namely: Staphyloccocus aureus ATCC25923 (Gram-positive bacteria), Clostridium perfringen CVCC52,8604 (anaerobes bacteria), Salmonella pullorum (Gram-negative bacteria), Escherichia coli ATCC25922 (Gram negative bacteria) and Aeromonas hydrophila (Gram-negative bacteria) were used in the study. Each strain was cultured in appropriate broth medium. Clostridium perfringen was incubated in an anaerobic chamber. The minimum inhibitory concentration (MIC) for each test compound was estimated using the broth dilution method. The MIC’s was determined for each strain/compound pairs that presented antimicrobial activity. The method was modified from Mohapatra›s methods ([14], [15]). Cell suspensions were prepared in 2 mL of liquid medium with concentrations of various tests of compounds in 15 mL culture tubes by inoculation with 100 μL of 10^6 cfu/mL from each stock. The cultures were incubated at 28 °C or 37 °C for 24 h. Tubes showing no visible turbidity represented the MIC, and subsequently, were inoculated on the right side of the 9cm sterile nutrient agar plates without various test compounds and incubated for 24 h (Clostridium perfringen was incubated in an anaerobic chamber.). The least concentration, at which no growth was observed, represented the minimum bactericidal concentration (MBC) ([16]).

[3] = test system: normal human Chang liver cells; test: In-vitro cytotoxicity, MTT cell proliferation assay; assay type: cell-based; settings: 24 h incubation, concentration reducing viable cells by 50%
Description: as §1, §2, §3, §4

[4] = test system: Escherichia coli ATCC25922; test: In-vitro antibacterial activity, MIC by broth dilution; assay type: cell-based; settings: for MIC: Escherichia coli, read-out: MIC values Escherichia coli ATCC25922
Description: as §1, §5

[5] = test system: Salmonella pullorum; test: as above; assay type: cell-based; settings: 24 h; for MIC: Salmonella enterica, PULLORUM
Description: as §1, §5

[6] = test system: Aeromonas hydrophila; test: as above; assay type: cell-based; settings: 24 h; for MIC: Aeromonas hydrophila, read-out: MIC values Aeromonas hydrophila
Description: as §1, §5

[7] = test system: Staphyloccocus aureus ATCC25923; test: as above; assay type: cell-based; settings: 24 h; for MIC: read-out: MIC values Staphyloccocus aureus ATCC25923
Description: as §1, §5

[8] = test system: Gram-positive and Gram-negative bacteria; test: Antibacterial activity class based on the MIC results; assay type: cell-based
Description: as §5
In this study, activity of quinoxaline-1, 4-dioxides and their deoxygenations was tested against selected Gram-negative bacteria (Escherichia coli, Salmonella pullorum and Aeromonas hydrophila), Gram-positive bacteria (Staphyloccocus aureus and Clostridium perfringen). The in-vitro antibacterial activity was based on the MIC results: Strong antibacterial activity, if MIC is less than 50 μg/mL; Moderate, if MIC is in between 50 and 250 μg/mL; No activity, if MIC is more than 500 μg/mL.

[9] = Homo sapiens, Chang liver, 24 h
[10] = ATCC25922, broth dilution, 24 h

Compound | IC50 [1] [µM] | MIC values Clostridium perfringen [2] [µg/mL] | IC50 [3] [µM] | MIC values Escherichia coli ATCC25922 ([4]; broth dilution, 24 h) [µg/mL] | MIC values Salmonella pullorum [5] [µg/mL] | MIC values Aeromonas hydrophila ([6]; broth dilution) [µg/mL] | MIC values Staphyloccocus aureus ATCC25923 ([7]; broth dilution) [µg/mL] | IC50 ([1]; Homo sapiens, HepG2, 24 h) [µM] | MIC [2] [µg/mL] | IC50 [3, 9] [µM] | MIC [4, 10] [µg/mL] | MIC [5] [µg/mL] | MIC ([6]; broth dilution) [µg/mL] | MIC ([7]; broth dilution) [µg/mL] | antibacterial activity against Gram-positive and Gram-negative bacteria [8] | MIC [7] [µg/mL] | MIC ([4]; ATCC25922, 24 h) [µg/mL] | MIC [6] [µg/mL]
2-(3-phenyl-2-propenyl) -3-methylquinoxaline [Compound 5a] | 451 ± 11.1 | >500 | 532 ± 7.66 | >500 | >500 | >500 | >500 | – | – | – | – | – | – | – | – | – | – | –
CC(=O)c1c(C)[n+]([O-])c2ccccc2[n+]1[O-] [Compound 2, 2-acetyl-3-methylquinoxaline-1,4-dioxide] | – | – | – | – | – | – | – | 288 ± 9.74 | 8.72 (≈ 40 µM) | 263 ± 3.11 | 4.36 (≈ 20 µM) | 17.4 (≈ 79.9 µM) | 17.4 (≈ 79.9 µM) | 17.4 (≈ 79.9 µM) | strong or moderate activity | – | – | –
Cc1c(C(=O)/C=C/c2cccc(O)c2)[n+]([O-])c2ccccc2[n+]1[O-] [Compound 3b] | 30.5 ± 1.3 | – | 68 ± 2.9 | – | – | – | – | 30 | 51.5 (≈ 160 µM) | 68 | 103 (≈ 320 µM) | 25.8 (≈ 79.9 µM) | 206 (≈ 639 µM) | 12.9 (≈ 40 µM) | strong or moderate activity | – | – | –
Cc1c(C(=O)/C=C/c2ccccc2O)[n+]([O-])c2ccccc2[n+]1[O-] [Compound 3c] | 102 ± 4.13 | – | – | – | – | – | – | 102 | 25.8 (≈ 79.9 µM) | 192 ± 10.3 | 103 (≈ 320 µM) | 103 (≈ 320 µM) | 103 (≈ 320 µM) | – | strong or moderate activity | 25.8 (≈ 79.9 µM) | – | –
Cc1c(C(=O)/C=C/c2cccc([N+](=O)[O-])c2)[n+]([O-])c2ccccc2[n+]1[O-] [Compound 3d] | – | – | – | – | – | – | – | 380 ± 10.6 | > 500 | 411 ± 17.1 | > 500 | 56.2 (≈ 160 µM) | 449 (≈ 1280 µM) | 449 (≈ 1280 µM) | little or no activity | – | – | –
Cc1c(C(=O)/C=C/c2ccc([N+](=O)[O-])cc2)[n+]([O-])c2ccccc2[n+]1[O-] [Compound 3e] | – | – | – | – | – | – | – | 449 ± 19.4 | 449 (≈ 1280 µM) | 536 ± 22.9 | – | 225 (≈ 639 µM) | 112 (≈ 320 µM) | – | little or no activity | 449 (≈ 1280 µM) | 449 (≈ 1280 µM) | –
COc1ccc(/C=C/C(=O)c2c(C)[n+]([O-])c3ccccc3[n+]2[O-])cc1 [Compound 3f] | 99.7 ± 2.97 | – | 86.9 ± 6.3 | – | – | – | – | 99 | 26.9 (≈ 79.9 µM) | 87 | > 500 | > 500 | > 500 | 13.4 (≈ 40 µM) | little or no activity | – | – | –
Cc1c(C(=O)/C=C/c2ccc(Cl)cc2)[n+]([O-])c2ccccc2[n+]1[O-] [Compound 3g] | 103 ± 4.08 | – | – | – | – | – | – | 102 | 435 (≈ 1280 µM) | 114 ± 4.59 | > 500 | > 500 | > 500 | 27.2 (≈ 79.8 µM) | little or no activity | – | – | –
Cc1c(C(=O)/C=C/c2ccc(N(C)C)cc2)[n+]([O-])c2ccccc2[n+]1[O-] [Compound 3h] | – | – | – | – | – | – | – | 395 ± 14.6 | 447 (≈ 1280 µM) | 509 ± 14.8 | – | > 500 | 223 (≈ 639 µM) | – | little or no activity | 447 (≈ 1280 µM) | 447 (≈ 1280 µM) | –
CC(=O)c1nc2ccccc2nc1C [Compound 4, 2-acetyl-3-methylquinoxaline] | – | – | – | – | – | – | – | 572 ± 36.2 | > 500 | 672 ± 23.2 | > 500 | 476 (≈ 2560 µM) | 119 (≈ 639 µM) | > 500 | little or no activity | – | – | –
Cc1nc2ccccc2nc1C(=O)/C=C/c1cccc(O)c1 [Compound 5b] | – | – | – | – | – | – | – | 526 ± 20.9 | > 500 | 463 ± 9.91 | > 500 | > 500 | 371 (≈ 1280 µM) | > 500 | – | – | – | –
Cc1nc2ccccc2nc1C(=O)/C=C/c1ccccc1O [Compound 5c] | – | – | – | – | – | – | – | 274 ± 11.6 | > 500 | 361 ± 10.2 | > 500 | > 500 | 371 (≈ 1280 µM) | > 500 | – | – | – | –
Cc1nc2ccccc2nc1C(=O)/C=C/c1cccc([N+](=O)[O-])c1 [Compound 5d] | – | – | – | – | – | – | – | 461 ± 4.49 | > 500 | 499 ± 8.75 | > 500 | > 500 | > 500 | > 500 | – | – | – | –
Cc1nc2ccccc2nc1C(=O)/C=C/c1ccc([N+](=O)[O-])cc1 [Compound 5e] | – | – | – | – | – | – | – | 606 ± 34.6 | > 500 | 590.1 ± 2.22 | > 500 | > 500 | > 500 | > 500 | – | – | – | –
COc1ccc(/C=C/C(=O)c2nc3ccccc3nc2C)cc1 [Compound 5f] | – | – | – | – | – | – | – | 653 ± 32 | > 500 | 531 ± 19.3 | > 500 | > 500 | > 500 | > 500 | – | – | – | –
Cc1nc2ccccc2nc1C(=O)/C=C/c1ccc(Cl)cc1 [Compound 5g] | – | – | – | – | – | – | – | 533 ± 24.8 | > 500 | 689 ± 46.2 | > 500 | > 500 | > 500 | > 500 | – | – | – | –
Cc1nc2ccccc2nc1C(=O)/C=C/c1ccc(N(C)C)cc1 [Compound 5h] | – | – | – | – | – | – | – | 626 ± 25.4 | > 500 | 567 ± 26.7 | > 500 | > 500 | > 500 | > 500 | – | – | – | –
Cc1c(C(=O)/C=C/c2ccco2)[n+]([O-])c2ccccc2[n+]1[O-] [Compound 6, 3-methyl-2-(3-fura-2-propenoyl)-quinoxaline-1,4-dioxide] | – | – | – | – | – | – | – | 240 ± 34.8 | 94.7 (≈ 320 µM) | 299 ± 6.72 | – | 189 (≈ 639 µM) | – | – | strong or moderate activity | 94.7 (≈ 320 µM) | 94.7 (≈ 320 µM) | 94.7 (≈ 320 µM)
Cc1nc2ccccc2nc1C(=O)/C=C/c1ccco1 [Compound 7, 3-methyl-2-(3-fura-2-propenoyl)-quinoxaline] | – | – | – | – | – | – | – | 441 ± 12.3 | > 500 | 469 ± 5.26 | > 500 | > 500 | 338 (≈ 1280 µM) | > 500 | – | – | – | –
Cc1nc2ccccc2nc1C(=O)O [Compound 10, 3-methyl-quinoxaline-2-carboxylic acid] | – | – | – | – | – | – | – | 2490 ± 133 | > 500 | 2120 ± 90.1 | > 500 | > 500 | 481 (≈ 2560 µM) | > 500 | – | – | – | –
